# Experimental data taken from patent publication US20180142537A1, “WATER INJECTION SYSTEM COMPRISING BIOFILM SENSOR(S)” (TOTAL SA, priority 2015, published 2018).
# How the values were obtained:
# biofilm [1] = experiment: Detection and removal of biofilm by batch or continuous injection of a biocide, seawater channels with ALVIM electrochemical biofilm probe; conditions: Mediterranean seawater; for biofilm probe signal after batch injection of biocide: batch injections at biofilm phases 900 mV, 1100 mV and 1200 mV, FIG. 3
# Experimental: Tests of biofilm detection were carried out in a pilot plant continuously fed with Mediterranean seawater (2 m deep, 50 m from the coast). The experimental conditions are favorable to the biofilm growth: laminar flowing and coastal seawater rich in microorganisms and suspended solids (Silt Density Index SDI5min=10-18).
# Tests were carried out in a tank divided in 6 parallel channels with equal dimensions (0.76 m-long, 0.1 m-deep and 0.07 m-wide per channel). Each channel was continuously fed with from 10 L/h to 40 L/h of seawater pre-filtered with a multimedia filter (40 μm). The speed of water flowing in the channels ranges from 0.0003 to 0.0013 m/s.
# Several channels are equipped with an electrochemical biofilm sensor whose working electrode is immersed within the flowing water phase. The electrochemical biofilm sensor is provided by ALVIM Srl. This biofilm sensor is able to detect the electrochemical activity of a biofilm (Faimali et al., 2010 and Pavanello et al., 2011). This activity is proportional to the surface covered with biofilm. Thus, when a biofilm appears on the flat surface of the working electrode, the electrical signal transmitted by the device instantly increases. When the working electrode is immersed in seawater, its potential is stable (around 600 mV). Whenever the working electrode detects the biofilm, its potential increases and reaches a potential threshold which relate to a given maximum value of the probe (signal saturation).
# The following experiment has been performed on two parallel channels of the tank. Each one is equipped with an ALVIM probe. Two biocides were tested: sodium hypochlorite (ClO^−Na^+) and rocideDB (DBNPA). Batch injections of biocides have been carried out at different development phases of the biofilm (900 mV, 1100 mV and 1200 mV) in order to evaluate the resistance of the biofilm as a function of its maturation time.
# biofilm [2] = experiment: Biofilm growth upstream and downstream an ultrafiltration unit, with sodium hypochlorite injection; conditions: 2 ppm injected at pilot inlet, upstream of the ultrafiltration module; two injections; FIG. 5
# Source text: A second series of tests has been carried out to study the efficiency of inline monitoring upstream and downstream an ultrafiltration unit (pore size 10-50 nm). This type of porous membranes is considered as being able to retain all microorganisms present in natural water.
# Ultrafiltration modules are used according to the set up represented at FIG. 4. The UF modules are continuously fed with pre-filtered Mediterranean seawater (40 μm multimedia filter F, 2 m deep, 50 m from the coast, laminar flowing, Silt Density Index SDI5min=10-18). The flow rates of the UF modules are: 3000-4000 L/h and the recovery is around 80%.
# Two probes are positioned at the following locations of the pilot: • Probe 1: at the feedwater point of the ultrafiltration module (0.4-0.6 m/s);
# Probe 2: downstream the ultrafiltration module (flowing velocity=0.3-0.5 m/s).
# A dose of sodium hypochlorite is injected at various times during the experiment at the inlet of the pilot (upstream probe 1) as shown on FIG. 5.
SMILES,biofilm probe signal after batch injection of biocide (biofilm [1]),biofilm growth under continuous biocide injection (biofilm [1]; continuous injection of 1 mg/L),signal of probe 1 (feedwater) after biocide injection (biofilm [2])
OCl [sodium hypochlorite],brings the signal back to the baseline,no biofilm growth was detected,goes down rapidly to the baseline
"N#CC(Br)(Br)C(N)=O [DBNPA, 2,2-dibromo-3-nitrilopropionamide]",brings the signal back to the baseline,,
